Experimental findings from the METLIN SMRT retention time set (Domingo-Almenara et al. 2019) are described below.

SMILES strings stand for the structures.

This series can be described thus: gradient 5% acetonitrile 3 min, to 50% in 2 min, to 85% in 15 min, held 3 min, 100 µL/min. Conditions: column: Zorbax Extend-C18 2.1 x 50 mm; eluents: water / acetonitrile, 0.1% formic acid. Put shortly: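 Over 3 months, pure standards in mixtures of ~100 molecules were run by HPLC coupled to a quadrupole time-of-flight mass spectrometer in positive and negative ionization mode. The column was a Zorbax Extend-C18 (2.1 × 50 mm, 1.8 μm) at 100 μL/min, eluted with water and acetonitrile each holding 0.1% formic acid, with 40 μL dead and 900 μL dwell volumes. Retention time was determined from adduct peaks chosen by software and checked manually.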
In the case of `CCNC(=O)c1sc2nc(-c3cccc(F)c3)c(NCCCOC)n2c1C`, the RP-LC retention time is 844 s. In the case of `COc1ccc(-c2noc(C3CC(=O)N(c4ccc(Cl)cc4)C3)n2)cc1` (stereo not given) it was 1040 s; in that of `O=C(C1CCN(c2cncnc2N2CCOCC2)CC1)N1CCN(c2ccccc2)CC1`, 629 s. As for `Cc1ccc(C(=O)Nc2cnn(-c3ncncc3N3CCC(C)CC3)c2)s1`, the figure is 909 s; as for `Cc1cc(C)c(C)c(S(=O)(=O)N2CCCC2c2nc(-c3ccccc3)no2)c1C` (stereo not given), 1330 s; as for `CN(CCNC(=O)c1cccc(N2CCNC(c3ccccc3)C2)n1)C1CCCCC1` (stereo not given), 573 s. As for `O=C(Nc1cccc(F)c1)N1CC2CCCN2c2ccccc21` (stereo not given), the figure is 1110 s. In turn, `CC1=NS(=O)(=O)N(C)C=C1C(=O)OCc1ccc(C)cc1` returned an RP-LC retention time of 975 s. As for `O=C(c1ccc(OCC2CCN(C(=O)c3ccco3)CC2)cc1)N1CCOCC1`, the figure is 718 s. In the case of `CC(C)NC(=O)Cn1c2ccccc2n2c(=O)cc(-c3ccc(F)cc3)nc12` it was 702 s; in that of `Cc1ccc(CNC(=O)NCCn2cnc3cc(C(=O)NC4CCCC4)ccc32)cc1`, 652 s. In the case of `CSc1ccccc1NC(=O)C(=O)NCC1CCN(Cc2ccco2)CC1` it was 579 s; in that of `Cn1nnc2ccc(-c3noc(-c4ccccc4Br)n3)cc21`, 1030 s. As to `O=C(Nc1ccc(OCc2nnc(-c3ccc(Cl)cc3)o2)cc1)c1ccsc1`, the RP-LC retention time is 958 s.

In the case of `CCOC(=O)c1c(C)c(CCC(=O)NCCN2CCCCC2)n(C)c1C`, the RP-LC retention time amounted to 624 s. In the case of `COc1ccc(N2CCN(c3cc(SCC(=O)Nc4cccc(Cl)c4C)ncn3)CC2)cc1` it was 1060 s; in that of `O=c1c2sccc2n(Cc2nc(-c3cccc(C(F)(F)F)c3)no2)c(=O)n1-c1ccccc1F`, 1090 s. In the case of `CCOc1ccccc1C(=O)NCC(c1ccc(N(C)C)cc1)N(C)C` (stereo not given) it was 572 s; in that of `CCOC(=O)C1CCN(C(=O)c2cc(-c3ccc(C)c(C)c3)[nH]c2C)CC1`, 973 s. In turn, `CCCCc1ccc(NC(=O)Cn2nc3cc(C)nc(-c4ccc(OC)cc4)n3c2=O)cc1` yielded an RP-LC retention time of 1040 s.

On to `CCC(=O)Nc1ccc(S(=O)(=O)NCCc2ccc(N(C)C)cc2)c(C)c1`, for which the RP-LC retention time came out at 570 s.

`Cc1nc2cc(-c3noc(-c4cc(F)ccc4Cl)n3)ccc2o1` gave an RP-LC retention time of 1150 s.

In turn, `Cn1cnc2c(C(=O)Nc3ccc(F)c(Cl)c3)nn(-c3ccccc3)c2c1=O` yielded an RP-LC retention time of 976 s.

In the case of `COc1ccc(-c2noc(-c3nc(Cc4cccc(F)c4)no3)n2)cc1OC`, the RP-LC retention time is 1100 s. As for `CCc1cc(=O)n(CC(=O)NCCOC)c(N2CCOCC2)n1`, the figure is 577 s; as for `Cc1ccn2c(Nc3ccccc3C)c(-c3cccc(O)c3)nc2c1`, 673 s; as for `Cc1cc(N2CCCCC2)n2nc(CN3CCN(C(C)C)CC3)nc2n1`, 574 s.

As for `CCN(CC)C(=O)c1ccc2c(c1)N(CC(=O)NC(C)C)C(=O)C1CCCCN21` (stereo not given), the RP-LC retention time was 735 s. As for `O=S(=O)(c1cc(F)ccc1F)N1CCc2nc(-c3ccccc3)ncc2C1`, the figure is 1070 s; as for `Cc1cc(Cl)ccc1S(=O)(=O)N1CCC(OC2CCN(CC3CC3)C2=O)CC1` (stereo not given), 975 s. In turn, `O=C(C1CC1)N1CCc2sc(S(=O)(=O)Nc3ccc(Cl)cc3F)cc2C1` showed an RP-LC retention time of 887 s. As for `Cc1ccc(NC(=O)CCNc2cnc3cnccn23)cc1F`, the RP-LC retention time amounted to 578 s. In the case of `Cc1ccccc1NC(=O)Nc1c(-c2ccccc2)nc2ccccn12`, the RP-LC retention time amounted to 661 s.

The molecule `Cc1ccc(C)c(N2CCN(C(=O)c3csc(C(=O)NC4CC4)n3)CC2)c1` gave an RP-LC retention time of 968 s. As for `CC(=O)N1CCN(c2cc(-c3nc(-c4cccc(F)c4)no3)c3ccccc3n2)CC1`, the figure is 1090 s. `O=c1[nH]cc(S(=O)(=O)N2CCOCC2)c(=O)[nH]1` returned an RP-LC retention time of 546 s. As for `Cc1ccc(N2CC(NC(=O)NCc3ccco3)CC2=O)cc1C` (stereo not given), the figure is 682 s; as for `CCn1cc(S(=O)(=O)N2CCCCC2c2nc(-c3cccnc3)n[nH]2)cn1` (stereo not given), 615 s; as for `CN(C(=O)C(=O)Nc1ccc2nc3n(c(=O)c2c1)CCCCC3)c1cccc(C(F)(F)F)c1`, 819 s.

As for `Brc1cccc(-c2nc3ccccn3c2Nc2ccc3c(c2)OCCO3)c1`, the RP-LC retention time was determined as 714 s. As for `O=C(Cn1cnc2c(sc3nc(-c4ccccc4)ccc32)c1=O)NCc1ccc(Cl)cc1`, the figure is 1070 s.

For `CCOC(=O)c1ccc(Nc2c(-c3cccc(O)c3)nc3cnccn23)cc1`, the RP-LC retention time stood at 717 s. With `CCn1ncn2cc(S(=O)(=O)Nc3cc(C)ccc3C)cc2c1=O`, the RP-LC retention time worked out at 937 s.

`CCOc1ccc(NC(=O)N2CCN(Cc3nc4ccccc4o3)CC2)cc1`: the RP-LC retention time was 681 s. In the case of `CN(C)C(=O)c1ccc2c(c1)N(CC(=O)NCCCN1CCOCC1)C(=O)C1CCCCN21` (stereo not given) it was 593 s; in that of `CCNC(=O)CCc1nc2ccccc2n(CC(=O)Nc2ccc(OCC)cc2)c1=O`, 775 s. In the case of `Cc1oc(-c2[nH]ncc2C(=O)N2CCCC2)cc1S(=O)(=O)Nc1cccc(Cl)c1` it was 741 s; in that of `CCc1nc2cc(N3CCC(C(=O)NCc4ccccc4)CC3)cnc2nc1CC`, 820 s; in that of `COc1ccc(-c2noc(-c3ccc(NC(=O)c4ccc(Br)o4)cc3)n2)cc1`, 1190 s.

As for `COC(=O)c1cccc(NC(=O)CSc2cc(N3CCN(c4ccccc4OC)CC3)ncn2)c1`, the RP-LC retention time came to 926 s. In the case of `CCC(=O)N(C1CCOCC1)C1CCN(S(=O)(=O)c2ccc(C(F)(F)F)cc2)CC1` it was 892 s. As for `CCc1cc(-c2csc(S(=O)(=O)NCCCc3ccccc3)c2)on1`, the figure is 1060 s; as for `O=C(Nc1ccccc1F)N1CCC(CCNC(=O)C2(c3ccccc3)CC2)CC1`, 889 s; as for `Cc1cc(N2CCN(C)CC2)nc2ccc(NC(=O)CCC(=O)NCCC(C)C)cc12`, 556 s. As for `O=C(Nc1cccc2nsnc12)C1CCN(S(=O)(=O)N2CCOCC2)CC1`, the figure is 775 s. The molecule `CCc1ccc(OCC(=O)Nc2cnn(CC)c(=O)c2N2CCCCC2)cc1` registered an RP-LC retention time of 1240 s. In the case of `COc1cccc2cc(C(=O)N3CC(c4nc(C5CC5)no4)C3)oc12` it was 788 s; in that of `CCOC(=O)Cc1ccc(NC(=O)N2CCc3cn(C)c4cccc(c34)C2)cc1`, 749 s; in that of `COc1cccc(Cc2nc(-c3cn(-c4ccc(F)cc4)nn3)no2)c1`, 994 s. In the case of `O=C(c1ccccc1)N1CCN(C(=O)N(c2ccccc2)c2ccccc2)CC1` it was 808 s; in that of `Cc1cc(=O)n(CC(=O)Nc2ccc(C)c(C)c2)c(N2CCCCC2)n1`, 717 s. As for `O=C(C1CCN(S(=O)(=O)c2ccc3[nH]c(=O)ccc3c2)CC1)N1CCOCC1`, the figure is 613 s; as for `O=C(Nc1ccc(F)cc1F)c1c(O)c2cccnc2n(Cc2ccccc2)c1=O`, 1310 s; as for `CN(C)c1ccc2c(c1)CN(C(=O)c1cnccn1)CCO2`, 566 s. `O=C(Nc1ccc(S(=O)(=O)N2CCOCC2)cc1)c1ccc(Br)s1` came in with an RP-LC retention time of 858 s. In the case of `CCc1nc(-n2cccc2)sc1C(=O)Nc1ccc(F)c(C)c1` it was 1170 s; in that of `Cc1ccc(NC(=O)NCC2(N3CCOCC3)CCOC2)cc1C` (stereo not given), 615 s; in that of `Cc1ccc(-c2cn3ccccc3n2)cc1NS(=O)(=O)c1ccc(Br)cc1`, 710 s. In the case of `O=C(Nc1cccc2c1CCCC2)C1CCN(S(=O)(=O)c2cccc3nonc23)CC1` it was 990 s; in that of `Cc1cc(C)n(CC(=O)N[C@@H]2CN(S(C)(=O)=O)C[C@H]2CN(C)C)n1`, 564 s. As for `Cn1c(N2CCCC(C(=O)NCc3cccnc3)C2)cc(=O)n(C)c1=O` (stereo not given), the figure is 558 s; as for `N#Cc1cc2c(nc1SCC(=O)N1CCOCC1)CCCC2`, 798 s; as for `CC1CCN(c2cncnc2-n2cc(NC(=O)Nc3cccc(F)c3)cn2)CC1`, 772 s. Regarding `CC(C)CCn1c(=O)oc2ccccc21`, the RP-LC retention time was determined as 928 s. `CCCCN1C(=O)CN(S(=O)(=O)c2ccccc2)CC1(C)C(=O)NCc1ccc(F)cc1` (stereo not given) displayed an RP-LC retention time of 945 s. As to `CCOC(=O)c1nc(N(CC)c2ccc(OC)cc2)c2ccccc2n1`, the RP-LC retention time is 941 s.

`CCn1c(C(=O)N2CCCC(C(=O)N3CCN(c4ccc(OC)cc4)CC3)C2)cc2sccc21` (stereo not given) came in with an RP-LC retention time of 885 s.

The molecule `CCNC(=O)N1CCCC(Cn2cnc3cccnc32)C1` (stereo not given) came in with an RP-LC retention time of 578 s. In the case of `COc1ccc2[nH]cc(CCO)c2c1` it was 660 s.

Molecule `CCCOCCOC(=O)C1=C(C)NC2=C(C(=O)CC(C)(C)C2)C1c1cccc(OC)c1OC` (stereo not given) came in with an RP-LC retention time of 875 s.
